Laboratory results taken from patent US4256462A, “Method and composition for determination of n-nitrosamines” (University of Iowa Research Foundation, priority 1979, dated 1981).

Experiment: Denitrosation reaction time, iodo vs bromo salts
Conditions: sodium iodide reagent
Text: Particularly for the sodium iodide salt, the reaction will occur within one minute, whereas, when bromo salts are substituted, the reaction times are considerably longer, such as five minutes.

Structure (SMILES): [I-].[Na+] [sodium iodide]
- reaction time: one
